Source: article PMC5587309, “Involvement of arginine 878 together with Ca^2+ in mouse aminopeptidase A substrate specificity for N-terminal acidic amino-acid residues” (PLoS ONE, 2017)
Positions count from the first letter of the chain named.

Key:
Assay type in all cases: biochemical
wild-type mAPA [1] = target: T1, wild-type mAPA (Mus musculus, UniProt P16406); experiment: Ca2+ activation profile of GluNA hydrolysis by wild-type His-mAPA; settings: 0.5 mM GluNA
T1 construct: made in house; host or cells: stably transfected CHO-K1 cells
T1 sequence (P16406 1-945): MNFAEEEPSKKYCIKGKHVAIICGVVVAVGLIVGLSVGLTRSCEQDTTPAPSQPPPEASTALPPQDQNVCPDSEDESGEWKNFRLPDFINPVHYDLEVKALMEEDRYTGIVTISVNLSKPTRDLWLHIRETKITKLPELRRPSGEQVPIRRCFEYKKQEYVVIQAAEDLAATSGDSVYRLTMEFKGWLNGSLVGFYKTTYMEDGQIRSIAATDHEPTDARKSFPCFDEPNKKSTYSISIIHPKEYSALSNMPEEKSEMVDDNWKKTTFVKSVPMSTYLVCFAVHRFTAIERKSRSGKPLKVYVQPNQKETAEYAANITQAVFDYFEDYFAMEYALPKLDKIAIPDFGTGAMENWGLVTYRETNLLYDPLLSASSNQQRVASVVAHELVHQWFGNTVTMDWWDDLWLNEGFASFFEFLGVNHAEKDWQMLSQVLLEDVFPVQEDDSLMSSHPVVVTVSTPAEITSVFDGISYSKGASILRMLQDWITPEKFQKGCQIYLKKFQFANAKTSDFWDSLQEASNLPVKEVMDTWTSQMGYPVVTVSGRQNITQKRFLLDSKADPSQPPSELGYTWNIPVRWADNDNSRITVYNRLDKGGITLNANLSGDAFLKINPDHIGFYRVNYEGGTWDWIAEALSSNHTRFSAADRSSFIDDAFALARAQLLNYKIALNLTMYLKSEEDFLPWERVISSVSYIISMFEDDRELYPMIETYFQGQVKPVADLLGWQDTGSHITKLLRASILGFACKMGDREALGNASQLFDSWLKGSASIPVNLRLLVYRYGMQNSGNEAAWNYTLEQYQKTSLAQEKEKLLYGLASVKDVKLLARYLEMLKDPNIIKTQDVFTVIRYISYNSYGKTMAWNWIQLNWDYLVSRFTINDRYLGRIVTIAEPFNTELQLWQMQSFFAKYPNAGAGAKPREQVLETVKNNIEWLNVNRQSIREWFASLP
Description: Enzyme assays were carried out for wild-type and mutated […] 50 mM Tris-HCl buffer, pH 7.4, with or without 4 mM CaCl2, by monitoring the rate of hydrolysis of GluNA, as previously described. The sensitivity to Ca^2+ of purified wild-type and mutated His-mAPA was determinated by incubating 0.5 mM GluNA with 0 to 4 mM CaCl2 in a final volume of 100 μl of 50 mM Tris-HCl buffer, pH 7.4. All the assays were performed in black 96-well plates (solid black 96-well flat-bottomed non-treated plates with no lid; Corning Costar). All of the enzymatic studies were performed such that substrate hydrolysis rates were maintained below 10% (initial rate conditions). […] Fluorescence signals were monitored by counting photons with a spectrophotometer (Fusion universal microplate analyser; Packard) equipped with a temperature control device and a plate shaker. […] Fig 3 Effects of the divalent cation Ca^2+ on recombinant wild-type and mutated mouse APAs enzymatic activities. Purified mAPAs (2 μg) were incubated at 37°C for 30 min with 0.5 mM GluNA with various concentrations of CaCl2 in a final volume of 100 μl of 50 mM Tris-HCl buffer (pH7.4). (A), APA enzymatic activities expressed as a percentage of maximal hydrolysis velocity obtained with 4 mM Ca^2+ for each purification vs log of Ca^2+ concentration. (B), Effect of increasing Ca^2+ concentration on APA enzymatic activities.

wild-type mAPA [2] = target: T1, wild-type mAPA; experiment: Inhibition of GluNA hydrolysis by purified recombinant wild-type His-mAPA
Description: (§1) Enzyme assays were carried out for wild-type and mutated His-mAPAs in 50 mM Tris-HCl buffer, pH 7.4, with or without 4 mM CaCl2, by monitoring the rate of hydrolysis of GluNA, as previously described. The sensitivity to Ca^2+ of purified wild-type and mutated His-mAPA was determinated by incubating 0.5 mM GluNA with 0 to 4 mM CaCl2 in a final volume of 100 μl of 50 mM Tris-HCl buffer, pH 7.4. All the assays were performed in black 96-well plates (solid black 96-well flat-bottomed non-treated plates with no lid; Corning Costar). All of the enzymatic studies were performed such that substrate hydrolysis rates were maintained below 10% (initial rate conditions). The kinetic curves were monitored by following the increase in fluorescence at 460 nm (lex = 330 nm), induced by the release of the β-naphthylamide fluorogenic part of the substrate by APA. Fluorescence signals were monitored by counting photons with a spectrophotometer (Fusion universal microplate analyser; Packard) equipped with a temperature control device and a plate shaker. The kinetic parameters (Km and kcat) were determined from Michaelis-Menten plots, using GraphPad Prism 4 software (GraphPad) with a final concentration of substrate (GluNA) from 0.005 to 5 mM with or without 4 mM Ca^2+. For evaluation of the substrate specificity of APA with or without 4 mM Ca^2+, the rate of hydrolysis of […] additional substrates, α-L-aspartate-β-naphthylamide (AspNA), α-L-alanine-β-naphthylamide (AlaNA) and basic α-L-lysine-β-naphthylamide (LysNA), was determined under the same experimental conditions as described for GluNA. The sensitivity of wild-type and mutated His-mAPAs to inhibition by [(3S)-3-amino-4-sulfanyl-butane-1-sulfonic acid] (EC33), glutamate-thiol (GluSH), glutamate-phosphonic-acid (GluPO3H2), methionine-thiol (MetSH) and lysine-thiol (LysSH) was determined by establishing dose-dependent inhibition curves for a final GluNA concentration of 0.5 mM in the presence or absence of 4 mM CaCl2. These compounds being linear competitive inhibitors, their Ki were calculated from the formula Ki = IC50/ (1+ [GluNA]/Km).

R878A mutated mAPA = target: T2, R878A mutated mAPA (Mus musculus, UniProt P16406, R878A); experiment: Inhibition of GluNA hydrolysis by purified recombinant R878A His-mAPA
T2 construct: made in house; host or cells: stably transfected CHO-K1 cells
T2 sequence (P16406 1-945 R878A): T1 sequence (P16406 1-945) with R878A
Description: as §1

R878K mutated mAPA = target: T3, R878K mutated mAPA (Mus musculus, UniProt P16406, R878K); experiment: Inhibition of GluNA hydrolysis by purified recombinant R878K His-mAPA
T3 construct: made in house; host or cells: stably transfected CHO-K1 cells
T3 sequence (P16406 1-945 R878K): T1 sequence (P16406 1-945) with R878K
Description: as §1

[Ca+2].[Cl-].[Cl-] [Ca^2+]
EC50 (wild-type mAPA [1]; 0 to 4 mM CaCl2, read-out: EC50 of activation of enzymatic activity): 22 ± 5 µM
increase of enzymatic activity (wild-type mAPA [1]; Ca2+ concentration raised from 0 to 4 mM): 7 fold

N[C@@H](CCC(=O)O)P(=O)(O)O [GluPO3H2, (4R)-4-amino-4-phosphonobutanoic acid]
Ki (wild-type mAPA [2]): 0.074 ± 0.0077 µM
Ki (R878A mutated mAPA): 6.5 ± 0.24 µM
times less efficiently inhibited than wild-type (R878A mutated mAPA; R878A mAPA, presence of Ca2+): 87 times
Ki (R878K mutated mAPA): 0.619 ± 0.021 µM
times less efficiently inhibited than wild-type (R878K mutated mAPA; R878K mAPA, presence of Ca2+): 8 times
